According to ChEMBL document CHEMBL3593219, “Sesquiterpenes with TRAIL-resistance overcoming activity from Xanthium strumarium” (Bioorg Med Chem, 2015):
Calls of active or inactive are those of the source. No cut-off for these calls is given here.

Columns and labels:
AGS [1] = test: Increase in cleaved caspase-8 protein expression in human AGS cells at 8 uM incubated for 24 hrs in presence of 100 ng/ml TRAIL by Western blotting method; assay type: functional
AGS [2] = test: Increase in cleaved caspase-8 protein expression in human AGS cells incubated for 24 hrs by Western blotting method; assay type: functional, cell-based
AGS [3] = test: Increase in cleaved caspase-8 protein expression in human AGS cells at 8 uM incubated for 24 hrs in presence of 100 ng/ml TRAIL by Western blotting method relative to TRAIL alone; assay type: functional
AGS [4] = test: Increase in DR5 protein expression in human AGS cells incubated for 24 hrs by Western blotting method; assay type: functional, cell-based
AGS [5] = test: Increase in cleaved caspase-8 protein expression in human AGS cells at 8 uM incubated for 24 hrs by Western blotting method; assay type: functional
AGS [6] = test: Increase in cleaved caspase-9 protein expression in human AGS cells at 4 to 12 uM s by Western blotting method; assay type: functional, cell-based
AGS [7] = test: Increase in caspase-3 protein expression in human AGS cells at 8 uM incubated for 24 hrs in presence of 100 ng/ml TRAIL by Western blotting method; assay type: functional
AGS [8] = test: Inhibition of TRAIL-resistance in human AGS cells assessed as inhibition of cell viability at 4 uM incubated for 24 hrs in presence of 100 ng/ml TRAIL by FMCA method relative to TRAIL alone; assay type: functional
AGS [9] = test: Increase in DR5 protein expression in human AGS cells at 8 uM incubated for 3 to 12 hrs by Western blotting method; assay type: functional, cell-based; conditions: TDE = time-dependent effect
AGS [10] = test: Increase in Bax protein expression in human AGS cells at incubated for 24 hrs by Western blotting method; assay type: functional, cell-based
HeLa = test: Inhibition of TRAIL-resistance in human HeLa cells assessed as inhibition of cell viability at 4 to 12 uM incubated for 24 hrs in presence of 100 ng/ml TRAIL by FMCA method relative to TRAIL alone; assay type: functional, cell-based
AGS [11] = test: Inhibition of TRAIL-resistance in human AGS cells assessed as inhibition of cell viability at 8 uM incubated for 24 hrs in presence of 100 ng/ml TRAIL by FMCA method relative to TRAIL alone; assay type: functional
AGS [12] = test: Increase in CHOP protein expression in human AGS cells incubated for 24 hrs by Western blotting method; assay type: functional, cell-based
MCF7 = test: Inhibition of TRAIL-resistance in human MCF7 cells assessed as inhibition of cell viability at 4 to 12 uM incubated for 24 hrs in presence of 100 ng/ml TRAIL by FMCA method relative to TRAIL alone; assay type: functional, cell-based
DLD-1 = test: Inhibition of TRAIL-resistance in human DLD1 cells assessed as inhibition of cell viability at 4 to 12 uM incubated for 24 hrs in presence of 100 ng/ml TRAIL by FMCA method relative to TRAIL alone; assay type: functional, cell-based
AGS [13] = test: Decrease in Bcl2 protein expression in human AGS cells incubated for 24 hrs by Western blotting method; assay type: functional, cell-based
AGS [14] = test: Increase in caspase-3 protein expression in human AGS cells incubated for 24 hrs by Western blotting method; assay type: functional, cell-based
AGS [15] = test: Increase in DR4 protein expression in human AGS cells incubated for 24 hrs by Western blotting method; assay type: functional, cell-based
AGS [16] = test: Increase in caspase-3 protein expression in human AGS cells at 8 uM incubated for 24 hrs in presence of 100 ng/ml TRAIL by Western blotting method relative to TRAIL alone; assay type: functional
AGS [17] = test: Increase in cleaved caspase-9 protein expression in human AGS cells at 8 uM incubated for 24 hrs by Western blotting method; assay type: functional
AGS [18] = test: Increase in p53 protein expression in human AGS cells incubated for 24 hrs by Western blotting method; assay type: functional, cell-based
AGS [19] = test: Increase in cleaved caspase-9 protein expression in human AGS cells at 8 uM incubated for 24 hrs in presence of 100 ng/ml TRAIL by Western blotting method relative to TRAIL alone; assay type: functional
DU-145 = test: Inhibition of TRAIL-resistance in human DU145 cells assessed as inhibition of cell viability at 4 to 12 uM incubated for 24 hrs in presence of 100 ng/ml TRAIL by FMCA method relative to TRAIL alone; assay type: functional, cell-based
AGS [20] = test: Increase in caspase-3 protein expression in human AGS cells at 8 uM incubated for 24 hrs by Western blotting method; assay type: functional
HEK293 = test: Inhibition of TRAIL-resistance in HEK293 cells assessed as inhibition of cell viability at 4 to 8 uM incubated for 24 hrs in presence of 100 ng/ml TRAIL by FMCA method relative to TRAIL alone; assay type: cell-based; conditions: human, hek293, 24 h
AGS [21] = test: Increase in DR4 protein expression in human AGS cells at 8 uM incubated for 3 to 12 hrs by Western blotting method; assay type: functional, cell-based; conditions: TDE = time-dependent effect
AGS [22] = test: Increase in cleaved caspase-9 protein expression in human AGS cells at 8 uM incubated for 24 hrs in presence of 100 ng/ml TRAIL by Western blotting method; assay type: functional
AGS [23] = test: Inhibition of TRAIL-resistance in human AGS cells assessed as inhibition of cell viability at 12 uM incubated for 24 hrs in presence of 100 ng/ml TRAIL by FMCA method relative to TRAIL alone; assay type: functional
AGS [24] = test: Inhibition of TRAIL-resistance in human AGS cells assessed as inhibition of cell viability at 20 uM incubated for 24 hrs in presence of 100 ng/ml TRAIL by FMCA method relative to TRAIL alone; assay type: functional
AGS [25] = test: Inhibition of TRAIL-resistance in human AGS cells assessed as inhibition of cell viability at 10 uM incubated for 24 hrs in presence of 100 ng/ml TRAIL by FMCA method relative to TRAIL alone; assay type: functional
AGS [26] = test: Inhibition of TRAIL-resistance in human AGS cells assessed as inhibition of cell viability at 30 uM incubated for 24 hrs in presence of 100 ng/ml TRAIL by FMCA method relative to TRAIL alone; assay type: functional
AGS [27] = test: Increase in cleaved caspase-8 protein expression in human AGS cells at 16 uM incubated for 24 hrs in presence of 100 ng/ml TRAIL by Western blotting method; assay type: functional
AGS [28] = test: Increase in cleaved caspase-3 protein expression in human AGS cells at 16 uM incubated for 24 hrs in presence of 100 ng/ml TRAIL by Western blotting method; assay type: functional
AGS [29] = test: Increase in cleaved caspase-9 protein expression in human AGS cells at 16 uM incubated for 24 hrs by Western blotting method; assay type: functional
AGS [30] = test: Increase in cleaved caspase-3 protein expression in human AGS cells at 16 uM incubated for 24 hrs by Western blotting method; assay type: functional
AGS [31] = test: Increase in cleaved caspase-3 protein expression in human AGS cells at 16 uM incubated for 24 hrs in presence of 100 ng/ml TRAIL by Western blotting method relative to TRAIL alone; assay type: functional
AGS [32] = test: Increase in cleaved caspase-8 protein expression in human AGS cells at 16 uM incubated for 24 hrs in presence of 100 ng/ml TRAIL by Western blotting method relative to TRAIL alone; assay type: functional
AGS [33] = test: Increase in cleaved caspase-8 protein expression in human AGS cells at 16 uM incubated for 24 hrs by Western blotting method; assay type: functional
AGS [34] = test: Inhibition of TRAIL-resistance in human AGS cells assessed as inhibition of cell viability at 16 uM incubated for 24 hrs in presence of 100 ng/ml TRAIL by FMCA method relative to TRAIL alone; assay type: functional
AGS [35] = test: Increase in cleaved caspase-9 protein expression in human AGS cells at 16 uM incubated for 24 hrs in presence of 100 ng/ml TRAIL by Western blotting method relative to TRAIL alone; assay type: functional
AGS [36] = test: Inhibition of TRAIL-resistance in human AGS cells assessed as inhibition of cell viability at 24 uM incubated for 24 hrs in presence of 100 ng/ml TRAIL by FMCA method relative to TRAIL alone; assay type: functional
AGS [37] = test: Increase in cleaved caspase-9 protein expression in human AGS cells at 16 uM incubated for 24 hrs in presence of 100 ng/ml TRAIL by Western blotting method; assay type: functional

SMILES | Activity (AGS [2]) | Activity (AGS [4]) | Activity (AGS [6]) | Activity (AGS [10]) | inhibition (INH) (AGS [11]) | Activity (AGS [12]) | Activity (AGS [13]) | Activity (AGS [14]) | Activity (AGS [15]) | Activity (AGS [18]) | inhibition (INH) (AGS [24]) | inhibition (INH) (AGS [25]) | inhibition (INH) (AGS [26]) | inhibition (INH) (AGS [34]) | inhibition (INH) (AGS [36]) | other results
C=C1C(=O)O[C@H]2C[C@H](C)C(CCC(C)=O)=CC[C@H]12 | Dose-dependent effect | Dose-dependent effect | Dose-dependent effect | Dose-dependent effect | 44% | Dose-dependent effect | Dose-dependent effect | Dose-dependent effect | Dose-dependent effect | Dose-dependent effect |  |  |  |  |  | Activity (AGS [1]): 100%; Activity (AGS [3]): 20%; Activity (AGS [5]): 10%; Activity (AGS [7]): 100%; inhibition (INH) (AGS [8]): 32%; Activity (AGS [9]): tde; inhibition (HeLa): Active; inhibition (MCF7): Active; inhibition (DLD-1): Active; Activity (AGS [16]): 65%; Activity (AGS [17]): 20%; Activity (AGS [19]): 20%; inhibition (DU-145): Active; Activity (AGS [20]): 25%; Activity (HEK293): Non-toxic; Activity (AGS [21]): tde; Activity (AGS [22]): 100%; inhibition (INH) (AGS [23]): 24%
CC(O)CCC1=CC[C@H]2[C@H](C[C@@H]1C)OC(=O)[C@H]2C (stereo partly drawn) |  |  |  |  |  |  |  |  |  |  | 51% | 30% | 34% |  |  | 
CC(=O)CCC1=CC[C@H]2[C@H](C[C@@H]1C)OC(=O)[C@H]2C |  |  |  |  |  |  |  |  |  |  | 61% | 19% | 36% |  |  | 
COc1ccc(C(=O)O[C@@H]2C=C(C)CC[C@@]3(O)[C@@H](C(C)C)CC[C@]23C)cc1 | Dose-dependent effect | Dose-dependent effect | Dose-dependent effect | Dose-dependent effect | 15% | Dose-dependent effect | Dose-dependent effect | Dose-dependent effect | Dose-dependent effect | Dose-dependent effect |  |  |  | 61% | 56% | Activity (AGS [27]): 100%; Activity (AGS [28]): 100%; Activity (AGS [29]): 15%; Activity (AGS [30]): 5%; Activity (AGS [31]): 70%; Activity (AGS [32]): 50%; Activity (AGS [33]): 10%; Activity (AGS [35]): 20%; Activity (AGS [37]): 100%
C=C1C(=O)O[C@H]2C[C@H](C)C(CCC(C)O)=CC[C@H]12 (stereo partly drawn) |  |  |  |  | 23% |  |  |  |  |  |  |  |  | 48% | 35% | 
